From patent US20180371551A1, “MAT2A INHIBITORS FOR TREATING MTAP NULL CANCER” (Agios Pharmaceuticals, Inc., priority 2015, published 2018)

What was measured:
[1] = tested on: PRMT5-dependent di-methylarginine marks in HCT116 isogenic pair; experiment: Immunoblot of PRMT5-dependent di-methylarginine marks; type: cell-based; details: MTAP−/− and wt HCT116 cells, 5 days
From the text: (§1) FIGS. 2A-F. PRMT5 is selectively essential in MTAP-null cells upon genetic ablation but not pharmacologic targeting. Immunoblot analysis of the indicated proteins in HCT116 MTAP^−/− and HCT116 MTAP wt cells stably expressing PRMT5 shRNA and p-LVX empty vector control (EV). (B) PRMT5 is selectively essential in MTAP-null cells in vitro. Percent growth of HCT116 wt and HCT116 MTAP^−/− cells upon PRMT5 knockdown (+dox), with or without PRMT5 wt or R368A mutant rescue, versus no knockdown (no dox) control in a 10-day soft agar colony growth assay. Colonies were stained with crystal violet and then quantified using Li-Cor (mean±SD, n=3). (C) Immunoblot analysis of the indicated proteins in HCT116 MTAP^−/− and HCT116 MTAP wt cells stably expressing PRMT5 shRNA and shRNA-resistant PRMT5 wt cDNA or PRMT5 R368A catalytically-dead mutant cDNA. (D) Immunoblot analysis of symmetric di-methylarginine marks in HCT116 MTAP^−/− and HCT116 MTAP wt cells stably expressing PRMT5 shRNA and p-LVX empty vector control (EV), or PRMT5 shRNA and shRNA-resistant PRMT5 wt cDNA or PRMT5 R368A catalytically-dead mutant cDNA. (E) Dose response analysis with EPZ015666 titrated from 20 μM top dose in HCT116 MTAP wt vs. HCT116 MTAP^−/− cells. Cells were treated with EPZ015666 for 5 days and their response to the compound is measured as fold growth of treated cells vs. untreated control (mean±SD, n=3). […]

[2] = tested on: HCT116 MTAP wt vs. HCT116 MTAP−/− cells; experiment: EPZ015666 dose response, growth of HCT116 isogenic pair; type: cell-based; details: 5 days, titrated from 20 μM top dose
From the text: as §1

[3] = target: T1, PRMT5 (Homo sapiens, UniProt O14744); experiment: N-methyltransferase in vitro activity assay; type: biochemical
T1 construct: purchased Eurofins CEREP Panlabs
Description: MTA has been reported to inhibit activity of protein methyltransferases (Enouf et al., 1979). To test this notion directly, we performed an in vitro biochemical screen assessing enzyme activity of 33 different N-methyltransferases following treatment with 10 μM and 100 μM MTA (FIG. 4A). […] Next, we analyzed the MTA Ki for PRMT5, PRMT4, and a diverse subset of methyltransferases (FIG. 4C). In vitro screening of methyltransferase inhibition by MTA, as well as SAM Km measurements, was conducted using a panel of methyltransferase assays at Eurofins CEREP Panlabs.

T1 sequence (O14744 whole entry): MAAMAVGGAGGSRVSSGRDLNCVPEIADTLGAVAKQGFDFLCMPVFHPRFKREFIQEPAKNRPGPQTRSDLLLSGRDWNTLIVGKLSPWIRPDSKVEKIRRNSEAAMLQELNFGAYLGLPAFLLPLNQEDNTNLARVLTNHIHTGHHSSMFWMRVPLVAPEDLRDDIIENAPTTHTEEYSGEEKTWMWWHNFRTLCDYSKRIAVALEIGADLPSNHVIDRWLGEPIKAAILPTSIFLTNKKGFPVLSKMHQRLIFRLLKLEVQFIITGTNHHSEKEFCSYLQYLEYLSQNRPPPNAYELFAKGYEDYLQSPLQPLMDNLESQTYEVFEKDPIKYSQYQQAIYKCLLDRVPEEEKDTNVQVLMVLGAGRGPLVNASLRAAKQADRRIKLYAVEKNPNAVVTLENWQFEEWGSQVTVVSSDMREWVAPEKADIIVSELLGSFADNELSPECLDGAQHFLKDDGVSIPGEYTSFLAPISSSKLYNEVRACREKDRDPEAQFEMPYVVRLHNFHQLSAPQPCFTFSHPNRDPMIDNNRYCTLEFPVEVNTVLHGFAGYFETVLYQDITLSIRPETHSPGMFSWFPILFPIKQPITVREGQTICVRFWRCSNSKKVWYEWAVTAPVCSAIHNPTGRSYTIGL
T1 sequence (Q9BQA1 whole entry partner): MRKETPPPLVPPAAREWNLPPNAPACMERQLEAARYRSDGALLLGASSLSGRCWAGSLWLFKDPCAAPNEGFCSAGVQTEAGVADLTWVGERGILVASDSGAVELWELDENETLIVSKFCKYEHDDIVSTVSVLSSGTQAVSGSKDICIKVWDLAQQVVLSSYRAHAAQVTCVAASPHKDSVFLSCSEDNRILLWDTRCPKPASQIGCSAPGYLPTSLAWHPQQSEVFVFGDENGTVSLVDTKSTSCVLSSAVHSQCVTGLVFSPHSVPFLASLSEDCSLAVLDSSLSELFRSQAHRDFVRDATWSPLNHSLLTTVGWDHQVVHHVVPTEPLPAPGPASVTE

SMILES	PRMT5 activity inhibition (PRMT5-dependent di-methylarginine marks in total cell lysates) [1]	MTAP selectivity of growth inhibition [2]	MTAP selectivity of growth inhibition ([2]; listed as EPZ-015666)	IC50 ([3]; biochemical assay, read-out: PRMT5 IC50 for MTA)	Ki ([3]; read-out: MTA Ki for PRMT5)
O=C(NC[C@H](O)CN1CCc2ccccc2C1)c1cc(NC2COC2)ncn1 [EPZ015666]	equal degree of PRMT5 activity inhibition	not selective for the MTAP-deficient genetic background	did not lead to selective growth inhibition in MTAP-null cells	–	–
CSC[C@H]1O[C@@H](n2cnc3c(N)ncnc32)[C@H](O)[C@@H]1O [MTA, methylthioadenosine]	–	–	–	3000 nM	460 nM
